From US8613950B2, “Pharmaceutical forms with improved pharmacokinetic properties” (Bayer Intellectual Property GmbH, priority 2005, dated 2013)
Counter-ions that a name gives are not always drawn.

What was measured:
[1] = Solubility of the vardenafil form employed in 10 ml of physiological saline at 25° C.; type: physicochemical
From the text: Accordingly, the present invention provides a vardenafil-comprising drug formulation, which is characterized in that the solubility of the form of vardenafil employed in a small amount of aqueous liquid is sufficiently high and the dissolution rate of the formulation disintegrating in the mouth is sufficiently rapid.

[2] = cited from earlier work

SMILES	amount of the active compound form that dissolves in 10 ml of physiological saline ([1]; 10 ml physiological saline, amount offered = tablet dose corresponding to 10 mg of vardenafil, hydrochloride trihydrate)	dissolved amount expressed as vardenafil ([1]; 10 ml physiological saline, dose 11.85 mg vardenafil hydrochloride trihydrate)	share of the active compound employed that dissolves in 10 ml of physiological saline ([1]; dose 5.93 mg vardenafil hydrochloride trihydrate (5 mg vardenafil))	share of the dose of the active compound employed that dissolves in 10 ml of physiological saline ([1]; dose corresponding to 10 mg of vardenafil, hydrochloride trihydrate)	bioavailability ([2]; known property of vardenafil, oral)	time after administration at which the rapid decrease in the plasma concentration occurs ([2]; oral administration of vardenafil)
CCCc1nc(C)c2c(=O)[nH]c(-c3cc(S(=O)(=O)N4CCN(CC)CC4)ccc3OCC)nn12 [vardenafil hydrochloride trihydrate]	about 10.4 mg	8.8 mg	91%	88%	–	–
CCCc1nc(C)c2c(=O)[nH]c(-c3cc(S(=O)(=O)N4CCN(CC)CC4)ccc3OCC)nn12 [vardenafil]	–	–	–	–	about 14%	about 1 hour
